Results on one molecule are retold here after patent US9345742B2, “Aminostatin derivatives for the treatment of arthrosis” (MERCK PATENT GMBH, priority 2011, dated 2016).

By IC50 is commonly meant the point on the concentration scale where inhibition reaches its midpoint.

One data set has as its system bovine explants. In words: Cartilage explant assay (pH-induced cartilage degradation, GAG liberation). The data set is classed as cell-based. The conditions noted are these: Bos taurus, 72 h, pH 5.5, 3 days. An excerpt:
In order to investigate the effect of potential cathepsin D inhibitors on cartilage degradation, a pH-induced model based on bovine explants is used. The pH of the medium in which the explants are cultivated is matched here to the pathophysiological pH of an arthrotic knee. This pH is pH 5.5. In this ex vivo model, potential cathepsin D inhibitors are subsequently investigated for their action with respect to stopping of the cartilage degradation process. If the cartilage is destroyed, glycosaminoglycans (GAGs) are released into the cell culture supernatant. The amount of GAGs liberated can be determined quantitatively with the aid of DMMB (dimethylmethylene blue hydrochloride). If sulfated GAGs are detected using dimethylmethylene blue hydrochloride, the decrease in the absorption at 633 nm is utilised. […] In order to determine the concentration, a calibration line is also recorded using chondroitin sulfate.
The bovine explants are firstly prepared. The induction of the cartilage degradation is carried out in 96-multiwell plates. One explant is cultivated per well. In each case, 200 μl of DMEM (incubation medium pH 5.5) without FBS+30 μg/ml of ascorbic acid are added. Thus negative control, explants (n=4) are incubated at pH 7.4 (without FBS). This control is not included in the calculation of the data, but instead ensures that the pH change has the desired effect on the liberation of GAG. At this point, the substances to be tested are added. No preincubation of the explants is carried out. The explants are cultivated with the corresponding substances for 3 days in the incubator at 37° C. and 7.5% CO2.
In order to investigate the effect of cathepsin D inhibitors on the liberation of GAG (glycosaminoglycan), the substances are employed in the desired concentration and cultivated for 3 days. The compounds to be tested are tested in a first experiment in a concentration of 1 μM and 1% of DMSO. Substances which have an effect of >50% on the liberation of GAG (this corresponds to <50% of the control in the Assay Explorer) are tested in the next experiment at 100 nM and 1% of DMSO. Substances which have an effect of >50% on the liberation of GAG under these conditions (this corresponds to <50% of the control in the Assay Explorer) are tested in a concentration/effect relationship. The compounds here are investigated in the following concentrations: 30 μM, 10 μM, 3 μM, 1 μM, […], 0.1 μM, 0.03 μM, 0.01 μM.
The positive control used is pepstatin A with a concentration of 0.01 μM. The assay window is defined by the control (pH 5.5), defined as 0% effect, and the control pH 5.5+0.01 μM pepstatin A, defined as 100% effect. After incubation for 3 days, the cell culture supernatants are collected and stored at −20° C. or measured directly. The amount of liberated GAG is measured photometrically.
The effect (1 value) of the respective substance in % based on the positive control (pH 5.5+0.01 μM pepstatin A) and the negative control (pH 5.5) is reported for concentrations of 1 μM and 100 nM. The value represents the average of 4 replicants. In the determination of a concentration/effect relationship, an IC50 value is reported to the database (Assay Explorer).
The cell culture supernatants (200 μl) are either measured directly or stored at −20° C. In order to ensure an accurate determination of the concentration (μg/ml of GAG in the supernatant) of GAG, the measurement values must be located in the linear region of the standard curve. In order to ensure this, various dilutions are routinely introduced (1/5, 1/10, 1/20, 1/40). The dilutions are prepared with medium and introduced automatically (Hamilton) into a 384-well plate (15 μl). 60 μl of DMMB solution are likewise added automatically (or using a multichannel pipette). A rapid colour reaction occurs, which is subsequently measured at 633 nm using a plate reader (for example Envision).

The nature of data set [1]: Stability in bovine synovial fluid. The data set is classed as in vitro ADME. Particulars: 1 μM, 48 h at 37° C. As to the method: In order to check the stability of individual compounds, a pool of four different bovine synovial fluids is mixed. To this end, about 1 ml per SF is used. The mixture is prepared directly in a 5 ml glass vessel. The SFs are mixed thoroughly, but carefully. No air bubbles or foam should form. To this end, a vortex unit is used at the lowest speed. The compounds to be tested are tested in an initial concentration (unless required otherwise) of 1 μM. After addition of the substance, the batch is again mixed thoroughly and carefully. For visual monitoring, all SF batches are photographed, and the pictures are filed in the eLabBio file for the corresponding experiment. […] The batches are incubated in the incubator for 48 h at 37° C. and 7.5% CO2.
The sampling is carried out after the pre-agreed times (unless required otherwise, see below). 200 μl of the SF are removed from the mixture per time and transferred directly into a 0.5 ml “low-binding” Eppendorf vessel. “Low-binding” Eppendorf vessels are used in order to minimise interaction of the substances with the plastic of the vessels. 200 μl of acetonitrile have already been introduced into the Eppendorf vessel, so that a 1+1 mixture of the SF forms thereafter. This simplifies the subsequent analysis, but precipitation of protein may occur immediately after addition of the SF. This should be noted on the protocol. The 0 h sample is taken immediately after addition of the substance. This corresponds to the 100% value in the stability calculation. Ideally, the concentration employed should be retrieved here. The samples can be frozen at −20° C. • 0 h • 6 h • 24 h • 48 h
The negative control used is SF without substance. The positive control used is SF with 1 μM of substance. This corresponds to the 0 h value and thus 100% stability.
The concentrations measured (ng/ml) are plotted against the time in a graph (GraphPad Prism®). The percentage stability of the substance is determined here. The 100% value used is the initial value in the SF at time 0 h. The data are stored in eLabBio under the respective experiment number and reported in the MSR database (as percent stability after the corresponding incubation times).

For `CCC(CC)NC(=O)[C@@H](NC(=O)C[C@H](N)[C@H](Cc1ccccc1)NC(=O)[C@@H](NC(=O)[C@H](CC(C)C)NC(=O)CC(C)C)C(C)C)[C@@H](C)CC` [Compound 39, N-[(1S,2S)-1-(1-Ethylpropylcarbamoyl)-2-methylbutyl]-(S)-3-(S)-amino-4-{(S)-3-methyl-2-[(S)-4-methyl-2-(3-methylbutyryl-amino)pentanoylamino]butyrylamino}-5-phenylpentanamide], the IC50 in the data set on bovine explants stood at 0.233 nM. Also, the “Stability in synovial fluid” value in data set [1] is “stable”.
